Reference: PubChem BioAssay (NCI)
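Tested at 5 concentrations; 48 h exposure; 96-well plates; endpoints linearly interpolated, else capped at highest concentration. Definition used: TGI = concentration required for complete inhibition of growth.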

Experiments:
Test in all cases: NCI anticancer screen, dose series, 48 h
M14 melanoma = tested on: M14 melanoma
MALME-3M melanoma = tested on: MALME-3M melanoma
ACHN renal = tested on: ACHN renal
HCT-15 colon = tested on: HCT-15 colon
UACC-62 melanoma = tested on: UACC-62 melanoma
OVCAR-5 ovarian = tested on: OVCAR-5 ovarian
HOP-62 NSCLC = tested on: HOP-62 NSCLC
U251 CNS = tested on: U251 CNS
IGROV1 ovarian = tested on: IGROV1 ovarian
CCRF-CEM leukemia = tested on: CCRF-CEM leukemia
SR leukemia = tested on: SR leukemia
MDA-MB-435 = tested on: MDA-MB-435
NCI-H226 lung = tested on: NCI-H226 lung
TK-10 renal = tested on: TK-10 renal
A549 NSCLC = tested on: A549 NSCLC
OVCAR-3 ovarian = tested on: OVCAR-3 ovarian
PC-3 prostate = tested on: PC-3 prostate
SF-295 CNS = tested on: SF-295 CNS
HOP-92 NSCLC = tested on: HOP-92 NSCLC
NCI-H460 lung = tested on: NCI-H460 lung
COLO 205 colon = tested on: COLO 205 colon
HCT-116 colon = tested on: HCT-116 colon
KM12 colon = tested on: KM12 colon
T-47D breast = tested on: T-47D breast
SF-268 CNS = tested on: SF-268 CNS
RPMI-8226 leukemia = tested on: RPMI-8226 leukemia
HS 578T breast = tested on: HS 578T breast
SW-620 colon = tested on: SW-620 colon
SN12C renal = tested on: SN12C renal
NCI/ADR-RES ovarian = tested on: NCI/ADR-RES ovarian
HT29 colon = tested on: HT29 colon
OVCAR-4 ovarian = tested on: OVCAR-4 ovarian
DU-145 prostate = tested on: DU-145 prostate
SK-MEL-5 melanoma = tested on: SK-MEL-5 melanoma
OVCAR-8 ovarian = tested on: OVCAR-8 ovarian
UACC-257 melanoma = tested on: UACC-257 melanoma
MDA-MB-231 breast = tested on: MDA-MB-231 breast
NCI-H23 lung = tested on: NCI-H23 lung
MCF7 breast = tested on: MCF7 breast
UO-31 renal = tested on: UO-31 renal
NCI-H522 lung = tested on: NCI-H522 lung
SK-OV-3 ovarian = tested on: SK-OV-3 ovarian
SNB-19 CNS = tested on: SNB-19 CNS
RXF 393 renal = tested on: RXF 393 renal
K-562 leukemia = tested on: K-562 leukemia
786-0 renal = tested on: 786-0 renal
LOX IMVI melanoma = tested on: LOX IMVI melanoma
MOLT-4 leukemia = tested on: MOLT-4 leukemia
CAKI-1 renal = tested on: CAKI-1 renal
SNB-75 CNS = tested on: SNB-75 CNS
SK-MEL-2 melanoma = tested on: SK-MEL-2 melanoma
EKVX NSCLC = tested on: EKVX NSCLC
HCC-2998 colon = tested on: HCC-2998 colon
A498 renal = tested on: A498 renal
BT-549 breast = tested on: BT-549 breast
SF-539 CNS = tested on: SF-539 CNS

Structure (SMILES): O=C1c2ccccc2NC2C(O)c3ccccc3N12 (stereo unspecified)
- TGI (M14 melanoma): > 100 µM
- TGI (MALME-3M melanoma): > 100 µM
- TGI (ACHN renal): > 100 µM
- TGI (HCT-15 colon): > 100 µM
- TGI (UACC-62 melanoma): 56.8 µM
- TGI (OVCAR-5 ovarian): > 100 µM
- TGI (HOP-62 NSCLC): > 100 µM
- TGI (U251 CNS): > 100 µM
- TGI (IGROV1 ovarian): > 100 µM
- TGI (CCRF-CEM leukemia): 54.6 µM
- TGI (SR leukemia): > 100 µM
- TGI (MDA-MB-435): 31.9 µM
- TGI (NCI-H226 lung): > 100 µM
- TGI (TK-10 renal): > 100 µM
- TGI (A549 NSCLC): 61.5 µM
- TGI (OVCAR-3 ovarian): > 100 µM
- TGI (PC-3 prostate): > 100 µM
- TGI (SF-295 CNS): > 100 µM
- TGI (HOP-92 NSCLC): > 100 µM
- TGI (NCI-H460 lung): 55.7 µM
- TGI (COLO 205 colon): > 100 µM
- TGI (HCT-116 colon): > 100 µM
- TGI (KM12 colon): > 100 µM
- TGI (T-47D breast): > 100 µM
- TGI (SF-268 CNS): > 100 µM
- TGI (RPMI-8226 leukemia): 54.3 µM
- TGI (HS 578T breast): > 100 µM
- TGI (SW-620 colon): > 100 µM
- TGI (SN12C renal): > 100 µM
- TGI (NCI/ADR-RES ovarian): > 100 µM
- TGI (HT29 colon): > 100 µM
- TGI (OVCAR-4 ovarian): > 100 µM
- TGI (DU-145 prostate): > 100 µM
- TGI (SK-MEL-5 melanoma): > 100 µM
- TGI (OVCAR-8 ovarian): > 100 µM
- TGI (UACC-257 melanoma): 37.7 µM
- TGI (MDA-MB-231 breast): > 100 µM
- TGI (NCI-H23 lung): 84.3 µM
- TGI (MCF7 breast): > 100 µM
- TGI (UO-31 renal): > 100 µM
- TGI (NCI-H522 lung): > 100 µM
- TGI (SK-OV-3 ovarian): > 100 µM
- TGI (SNB-19 CNS): > 100 µM
- TGI (RXF 393 renal): > 100 µM
- TGI (K-562 leukemia): > 100 µM
- TGI (786-0 renal): > 100 µM
- TGI (LOX IMVI melanoma): > 100 µM
- TGI (MOLT-4 leukemia): 58.7 µM
- TGI (CAKI-1 renal): > 100 µM
- TGI (SNB-75 CNS): > 100 µM
- TGI (SK-MEL-2 melanoma): > 100 µM
- TGI (EKVX NSCLC): > 100 µM
- TGI (HCC-2998 colon): > 100 µM
- TGI (A498 renal): 37.9 µM
- TGI (BT-549 breast): > 100 µM
- TGI (SF-539 CNS): > 100 µM
